Reference: ChEMBL document CHEMBL1132781, “Structure-based design and synthesis of phosphinate isosteres of phosphotyrosine for incorporation in Grb2-SH2 domain inhibitors. Part 1” (Bioorg Med Chem Lett, 2000)

These compounds were tested against Growth factor receptor-bound protein 2 (Homo sapiens, UniProt P62993) (assay: Inhibition of Grb2-SH2 domain binding to phospho-EGF receptor intracellular C-terminal domain).
Assay type: cell-based

| IC50 [nM] | SMILES |
| --- | --- |
| 530 | CC(=O)N[C@@H](Cc1ccc(CP(=O)(O)C(O)c2ccccc2)cc1)C(=O)NC1(C(=O)N[C@@H]2CCCC[C@@H]2C(N)=O)CCCCC1 (stereo partly specified) |
| 25500 | CC(=O)N[C@@H](Cc1ccc(CP(C)(=O)O)cc1)C(=O)NC1(C(=O)N[C@@H]2CCCC[C@@H]2C(N)=O)CCCCC1 |
| 7600 | CC(=O)N[C@@H](Cc1ccc(CP(=O)(O)CO)cc1)C(=O)NC1(C(=O)N[C@@H]2CCCC[C@@H]2C(N)=O)CCCCC1 |
| 1600 | CC(=O)N[C@@H](Cc1ccc(CP(=O)(O)CCO)cc1)C(=O)NC1(C(=O)N[C@@H]2CCCC[C@@H]2C(N)=O)CCCCC1 |
| 1200 | CC(=O)N[C@@H](Cc1ccc(CP(=O)(O)Cc2ccccc2)cc1)C(=O)NC1(C(=O)N[C@@H]2CCCC[C@@H]2C(N)=O)CCCCC1 |
| 700 | CC(=O)N[C@@H](Cc1ccc(CP(=O)(O)O)cc1)C(=O)NC1(C(=O)N[C@@H]2CCCC[C@@H]2C(N)=O)CCCCC1 |
